Test results reported in paper PMC3276683 (Bioorganic & medicinal chemistry, 2012).
Where two headings read alike, the source gives them in different places.

Assays:
[1] = system: Plasmodium falciparum (strain K1, IEF stage); format: cell-based; conditions: L6 IC50 versus P. falciparum IC50
[2] = system: American Trypanosoma cruzi blood trypomastigotes; conditions: in words; cited from earlier work
Leishmania donovani = conditions: cited from earlier work
[3] = system: Trypanosoma brucei rhodesiense (strain STIB 900, trypomastigote stage); experiment: Growth inhibition of T. b. rhodesiense STIB900 trypomastigote forms; format: cell-based

In the case of `COC1=CC(=O)O[C@]2(/C=C/c3ccc(C(C)(C)C)cc3)[C@H]1[C@H](c1ccc(C(C)(C)C)cc1)[C@H]2c1cc(OC)cc(=O)o1` (racemic) [compound 33, 12,12′-Di-tert-butyl-aniba-dimer-A], the “SI Pf. (selectivity index for Plasmodium falciparum against L6)” value [1] is reported as about 80.
In the case of `COc1cc(/C=C/c2ccc(OC)c(OC)c2)oc(=O)c1` [compound 3, 6-[2-(3,4-Dimethoxyphenyl)ethenyl]-4-methoxy-2H-pyran-2-one], the “activity against T. cruzi blood trypomastigotes” value [2] is listed as “weak activity”.
In the case of `CCCCCCc1c(OC)cc(CCCCC)oc1=O` [compound 10], the IC50 (Leishmania donovani) is listed as “similarly active”.
Compound `Nc1nc(N)nc(Nc2ccc([As]3SCC(CO)S3)cc2)n1` (centres unmarked) [melarsoprol] has an IC50 ([3]; RHODESIENSE|STIB900) of 4 ng/mL and an IC50 ([3]; RHODESIENSE|STIB900, read-out: T.b.rhod. IC50) of 0.01 µM.
